Results as given in patent publication US20130236504A1, “Delivery System for Enhancing Drug Efficacy” (CLEMSON UNIVERSITY, priority 2012, published 2013).

Test system: U138 cells
Experiment: MTT cell viability / cytotoxicity assay in U138 cells
Description: Various drug combinations were incubated with U138 cells in cell culture media and the cells were then washed with PBS and added fresh media.

[1] = therapeutic agent at 100 nM compared with non-toxic chemo-adjuvant O6-BG at 100 uM (FIG. 4)

SMILES	cytotoxicity (free O6-BG 100 μg/ml (FIG. 6))	cell viability (incubation with various concentrations of O6-BG (FIG. 3))	cell viability [1]
Nc1nc(OCc2ccccc2)c2nc[nH]c2n1 [O6-BG, O6-Benzylguanine]	not cytotoxic	some effect on cell viability at very high concentrations	
C=CC(=O)Nc1cc2c(Nc3ccc(F)c(Cl)c3)ncnc2cc1OCCCN1CCOCC1 [canertinib]			cell viability is lower
CC(=O)O[C@H]1C(=O)[C@@]2(C)[C@H]([C@H](OC(=O)c3ccccc3)[C@]3(O)C[C@H](OC(=O)[C@H](O)[C@@H](NC(=O)c4ccccc4)c4ccccc4)C(C)=C1C3(C)C)[C@]1(OC(C)=O)CO[C@@H]1C[C@@H]2O [paclitaxel]			cell viability is lower
